In ChEMBL document CHEMBL3244320, “2-Acetylpyridine thiosemicarbazones. 1. A new class of potential antimalarial agents” (J Med Chem, 1979) one finds MST and Activity data, which are given here for 8 compounds.

Each structure is given as a SMILES string. Activity calls are given as the source filed them. The calls are words filed in the database; no cut-off is given here.

The test system of series [1] is Plasmodium berghei. The series is described as follows: Antimalarial activity against Plasmodium berghei KBG 173 infected in ICR/HA Swiss mouse assessed as increase in mean survival time at 80 mg/kg, sc administered 72 hrs post infection. It counts as functional. The following applies: route subcutaneous.
Series [2] concerns Plasmodium berghei. The series is described as follows: Antimalarial activity against Plasmodium berghei KBG 173 infected in ICR/HA Swiss mouse assessed as increase in mean survival time at 40 mg/kg, sc administered 72 hrs post infection. It counts as functional. The following applies: route subcutaneous.
In series [3] the test system is Mus musculus. The series is described as follows: Toxicity in ICR/HA Swiss mouse infected with Plasmodium berghei KBG 173 assessed as mortality at 320 mg/kg, sc administered 72 hrs post infection measured for 6 days. It counts as organism-based. Also on record: dose 320 mg/kg, route subcutaneous. The settings on record: in vivo, 144 h.
For series [4], the system named is Plasmodium berghei. The series is described as follows: Antimalarial activity against Plasmodium berghei KBG 173 infected in ICR/HA Swiss mouse assessed as increase in mean survival time at 160 mg/kg, sc administered 72 hrs post infection. The format is functional. The settings on record: route subcutaneous.
For series [5], the system named is Plasmodium berghei. The series is described as follows: Antimalarial activity against Plasmodium berghei KBG 173 infected in ICR/HA Swiss mouse assessed as curative effect at 320 mg/kg, sc administered 72 hrs post infection. Further details: dose 320 mg/kg. It counts as functional, organism-based.
Series [6] has as its system Plasmodium berghei. The series is described as follows: Antimalarial activity against Plasmodium berghei KBG 173 infected in ICR/HA Swiss mouse assessed as increase in mean survival time at 320 mg/kg, sc administered 72 hrs post infection. The format is functional. The settings on record: route subcutaneous.
Series [7] concerns Plasmodium berghei. The series is described as follows: Antimalarial activity against Plasmodium berghei KBG 173 infected in ICR/HA Swiss mouse assessed as curative effect at 160 mg/kg, sc administered 72 hrs post infection. Also on record: dose 160 mg/kg. The format is functional, organism-based.
Series [8] concerns Plasmodium berghei. The series is described as follows: Antimalarial activity against Plasmodium berghei KBG 173 infected in ICR/HA Swiss mouse assessed as increase in mean survival time at 640 mg/kg, sc administered 72 hrs post infection. The following applies: route subcutaneous. It counts as functional.
The test system of series [9] is Mus musculus. The series is described as follows: Toxicity in ICR/HA Swiss mouse infected with Plasmodium berghei KBG 173 assessed as mortality at 640 mg/kg, sc administered 72 hrs post infection measured for 6 days. Further details: dose 640 mg/kg, route subcutaneous. The following applies: in vivo, 144 h. It counts as organism-based.
In series [10] the test system is Mus musculus. The series is described as follows: Toxicity in ICR/HA Swiss mouse infected with Plasmodium berghei KBG 173 assessed as mortality at 160 mg/kg, sc administered 72 hrs post infection measured for 6 days. It counts as organism-based. Further details: dose 160 mg/kg, route subcutaneous. The settings on record: in vivo, 144 h.
The test system of series [11] is Mus musculus. The series is described as follows: Toxicity in ICR/HA Swiss mouse infected with Plasmodium berghei KBG 173 assessed as mortality at 40 mg/kg, sc administered 72 hrs post infection measured for 6 days. It counts as organism-based. The following applies: in vivo, 144 h. Also on record: dose 40 mg/kg, route subcutaneous.

For `CCN(CC)Cc1cc(NC(=S)N/N=C(\C)c2ccccn2)ccc1O.Cl.O`, the MST with Plasmodium berghei [1] is 5.6 days; in the series with Plasmodium berghei [2], 2 days; in the series with Plasmodium berghei [4], 8.8 days. The Activity result in the series on Mus musculus [3] is on record as “Toxic”.
Consider `C/C(=N\NC(=S)Nc1cccc(C)c1)c1ccccn1`, for which the MST with Plasmodium berghei [1] turned out to be 3 days; with Plasmodium berghei [2], 0.4 days; in the series on Plasmodium berghei [4] it was 7.4 days; in the series on Plasmodium berghei [6], 10.3 days. Further, the outcome in the series with Plasmodium berghei [5] was Active.
Regarding `C/C(=N\NC(=S)Nc1ccc(C)cc1)c1ccccn1`, the MST in the series with Plasmodium berghei [1] amounted to 2.1 days; with Plasmodium berghei [2] it was 0.3 days; in the series on Plasmodium berghei [4], 4.5 days. The outcome in the series on Plasmodium berghei [5] was Active.
Take `C/C(=N\NC(=S)NC1CCCCCCC1)c1ccccn1`: the MST was 1.2 days with Plasmodium berghei [1]; 1.1 days with Plasmodium berghei [2]; 3.4 days in the series with Plasmodium berghei [4]; 10.7 days in the series on Plasmodium berghei [8]; 4.8 days with Plasmodium berghei [6]. The outcome with Plasmodium berghei [7] was Active.
For `Br.CCN(CC)CCNC(=S)N/N=C(\C)c1ccccn1`, the MST with Plasmodium berghei [2] turned out to be 0.3 days; in the series with Plasmodium berghei [4] it was 0.5 days. The Activity result in the series on Mus musculus [3] and in the series on Mus musculus [9] was “Toxic” throughout.
With `C/C(=N\NC(N)=S)c1ccccn1`, the Activity entry in the series with Mus musculus [10], with Mus musculus [9] and in the series on Mus musculus [11] was “Toxic” throughout.
As to `C/C(=N\NC(=S)Nc1ccccc1F)c1ccccn1`, the values for the MST in the series on Plasmodium berghei [1], with Plasmodium berghei [2] and with Plasmodium berghei [4] were 2.6 days, 0 days and 6.8 days, respectively. Further, in the series on Plasmodium berghei [5], the result was Active.
Take `C/C(=N\NC(=S)NCc1ccccc1C)c1ccccn1`: the MST in the series on Plasmodium berghei [1] worked out at 2.5 days; in the series with Plasmodium berghei [2], 0.1 days; in the series with Plasmodium berghei [4], 5.9 days; in the series with Plasmodium berghei [8], 8.9 days; in the series on Plasmodium berghei [6], 7.7 days. For the same compound, the outcome in the series with Plasmodium berghei [7] was Active.
